Results as given in US9527869B2, “Indolizine derivatives as phoshoinositide 3-kinases inhibitors” (CHIESI FARMACEUTICI S.P.A., priority 2014, dated 2016).
pIC50: −log10 of the molar value.

Legend:
Format in all cases: biochemical
PI3Kα = molecular target: T1, PI3Kα (Homo sapiens, UniProt P42336); experiment: In vitro determination of the PI3K enzyme inhibitory activity in the cell free assay (ADP-Glo Kinase Assay), PI3Kα; conditions: ATP 50 μM, read-out: PI3K alpha inhibition
T1 construct: purchased Millipore Ltd (Billerica, Mass.)
T1 sequence (P42336 whole entry): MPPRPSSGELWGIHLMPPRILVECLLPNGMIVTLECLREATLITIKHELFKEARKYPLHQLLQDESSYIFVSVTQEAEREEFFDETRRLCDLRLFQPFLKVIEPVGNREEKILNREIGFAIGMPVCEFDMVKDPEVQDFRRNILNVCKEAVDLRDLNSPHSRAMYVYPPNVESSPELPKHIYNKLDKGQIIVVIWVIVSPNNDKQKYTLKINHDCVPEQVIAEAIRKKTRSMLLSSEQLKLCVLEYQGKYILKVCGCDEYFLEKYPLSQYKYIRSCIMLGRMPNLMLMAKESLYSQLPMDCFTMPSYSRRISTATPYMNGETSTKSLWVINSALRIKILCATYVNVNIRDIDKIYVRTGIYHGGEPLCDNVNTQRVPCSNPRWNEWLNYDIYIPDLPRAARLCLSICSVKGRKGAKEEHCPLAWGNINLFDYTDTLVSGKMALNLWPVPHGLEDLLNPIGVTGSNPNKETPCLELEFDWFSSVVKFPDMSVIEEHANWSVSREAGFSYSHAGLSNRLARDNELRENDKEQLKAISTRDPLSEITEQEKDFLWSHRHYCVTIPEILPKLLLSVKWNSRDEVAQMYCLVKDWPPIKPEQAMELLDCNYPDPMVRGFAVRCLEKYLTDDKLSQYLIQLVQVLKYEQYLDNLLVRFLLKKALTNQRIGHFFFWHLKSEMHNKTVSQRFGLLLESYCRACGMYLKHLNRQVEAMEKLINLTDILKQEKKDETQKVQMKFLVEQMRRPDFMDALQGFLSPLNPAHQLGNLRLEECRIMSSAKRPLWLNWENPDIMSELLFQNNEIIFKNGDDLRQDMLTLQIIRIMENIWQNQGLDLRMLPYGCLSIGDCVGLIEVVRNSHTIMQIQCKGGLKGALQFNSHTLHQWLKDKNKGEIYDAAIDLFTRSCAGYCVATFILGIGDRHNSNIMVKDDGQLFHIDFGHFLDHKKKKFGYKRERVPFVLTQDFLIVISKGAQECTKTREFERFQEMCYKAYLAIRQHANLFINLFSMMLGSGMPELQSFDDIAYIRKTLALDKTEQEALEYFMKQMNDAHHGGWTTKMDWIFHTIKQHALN
T1 sequence (P27986 whole entry partner): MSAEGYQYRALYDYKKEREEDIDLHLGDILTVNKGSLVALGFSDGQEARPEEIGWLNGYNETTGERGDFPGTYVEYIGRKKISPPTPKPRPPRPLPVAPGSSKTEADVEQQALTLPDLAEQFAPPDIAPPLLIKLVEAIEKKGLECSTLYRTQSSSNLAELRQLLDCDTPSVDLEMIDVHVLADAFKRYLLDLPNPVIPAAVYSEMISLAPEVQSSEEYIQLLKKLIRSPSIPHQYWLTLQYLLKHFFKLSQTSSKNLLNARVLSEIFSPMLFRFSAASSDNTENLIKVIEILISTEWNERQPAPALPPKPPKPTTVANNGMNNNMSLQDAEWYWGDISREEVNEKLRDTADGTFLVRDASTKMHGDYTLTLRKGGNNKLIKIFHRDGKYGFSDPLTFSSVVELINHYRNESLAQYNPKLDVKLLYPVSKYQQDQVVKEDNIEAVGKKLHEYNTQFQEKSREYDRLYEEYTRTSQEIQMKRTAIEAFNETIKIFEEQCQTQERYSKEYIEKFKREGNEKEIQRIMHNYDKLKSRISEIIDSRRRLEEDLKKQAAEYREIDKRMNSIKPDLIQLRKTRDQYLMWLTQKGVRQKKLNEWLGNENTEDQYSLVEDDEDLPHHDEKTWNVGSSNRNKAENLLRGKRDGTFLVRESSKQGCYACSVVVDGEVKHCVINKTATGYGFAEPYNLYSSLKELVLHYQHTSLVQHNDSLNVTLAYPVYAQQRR
Procedure, shortened: (§1)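 Human recombinant PI3K isoforms with PI/PS lipid substrates (50 μM in 2× buffer, Tris pH 7.5, DTT) were run 60 min at room temperature. Final ATP was 50 μM for α, 100 μM for β, 30 μM for γ and 80 μM for δ. ADP formation was read by ADP-Glo luminescence, and IC50 came from a four-parameter logistic fit.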

PI3Kβ = molecular target: T2, PI3Kβ (Homo sapiens, UniProt P42338); experiment: In vitro determination of the PI3K enzyme inhibitory activity in the cell free assay (ADP-Glo Kinase Assay), PI3Kβ; conditions: ATP 100 μM, read-out: PI3K beta inhibition
T2 construct: purchased Millipore Ltd (Billerica, Mass.)
T2 sequence (P42338 whole entry): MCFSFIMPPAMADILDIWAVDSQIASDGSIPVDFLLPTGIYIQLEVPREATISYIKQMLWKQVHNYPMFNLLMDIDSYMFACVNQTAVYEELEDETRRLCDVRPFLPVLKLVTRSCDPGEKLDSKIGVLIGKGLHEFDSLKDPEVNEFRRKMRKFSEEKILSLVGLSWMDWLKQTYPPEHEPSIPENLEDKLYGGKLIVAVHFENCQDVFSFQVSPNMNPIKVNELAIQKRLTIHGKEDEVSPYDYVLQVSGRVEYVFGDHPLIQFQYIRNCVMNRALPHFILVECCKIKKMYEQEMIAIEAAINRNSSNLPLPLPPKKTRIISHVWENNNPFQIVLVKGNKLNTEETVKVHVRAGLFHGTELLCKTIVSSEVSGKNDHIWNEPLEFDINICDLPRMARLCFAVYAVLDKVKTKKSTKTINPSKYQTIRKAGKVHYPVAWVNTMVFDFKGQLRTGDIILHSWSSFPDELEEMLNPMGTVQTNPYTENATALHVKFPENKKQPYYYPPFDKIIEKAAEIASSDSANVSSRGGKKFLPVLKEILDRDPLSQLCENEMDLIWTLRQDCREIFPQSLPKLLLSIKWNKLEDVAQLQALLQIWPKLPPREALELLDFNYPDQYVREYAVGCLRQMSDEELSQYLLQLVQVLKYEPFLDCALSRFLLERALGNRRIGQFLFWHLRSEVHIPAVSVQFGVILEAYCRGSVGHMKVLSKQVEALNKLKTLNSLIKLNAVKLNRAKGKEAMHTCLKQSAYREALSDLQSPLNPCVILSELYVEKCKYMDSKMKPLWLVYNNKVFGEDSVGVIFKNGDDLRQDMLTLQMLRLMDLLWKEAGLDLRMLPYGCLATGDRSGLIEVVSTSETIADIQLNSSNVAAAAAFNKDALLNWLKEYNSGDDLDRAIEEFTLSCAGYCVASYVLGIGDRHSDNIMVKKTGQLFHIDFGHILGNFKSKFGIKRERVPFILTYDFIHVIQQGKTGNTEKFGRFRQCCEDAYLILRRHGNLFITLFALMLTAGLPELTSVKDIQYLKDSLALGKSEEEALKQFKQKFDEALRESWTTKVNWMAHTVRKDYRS
T2 sequence (P27986 whole entry partner): as the sequence (P27986 whole entry partner) above
Procedure, shortened: as §1

PI3Kγ = molecular target: T3, PI3Kγ (Homo sapiens, UniProt P48736); experiment: In vitro determination of the PI3K enzyme inhibitory activity in the cell free assay (ADP-Glo Kinase Assay), PI3Kγ; conditions: ATP 30 μM, read-out: PI3K gamma inhibition
T3 construct: purchased Millipore Ltd (Billerica, Mass.)
T3 sequence (P48736 whole entry): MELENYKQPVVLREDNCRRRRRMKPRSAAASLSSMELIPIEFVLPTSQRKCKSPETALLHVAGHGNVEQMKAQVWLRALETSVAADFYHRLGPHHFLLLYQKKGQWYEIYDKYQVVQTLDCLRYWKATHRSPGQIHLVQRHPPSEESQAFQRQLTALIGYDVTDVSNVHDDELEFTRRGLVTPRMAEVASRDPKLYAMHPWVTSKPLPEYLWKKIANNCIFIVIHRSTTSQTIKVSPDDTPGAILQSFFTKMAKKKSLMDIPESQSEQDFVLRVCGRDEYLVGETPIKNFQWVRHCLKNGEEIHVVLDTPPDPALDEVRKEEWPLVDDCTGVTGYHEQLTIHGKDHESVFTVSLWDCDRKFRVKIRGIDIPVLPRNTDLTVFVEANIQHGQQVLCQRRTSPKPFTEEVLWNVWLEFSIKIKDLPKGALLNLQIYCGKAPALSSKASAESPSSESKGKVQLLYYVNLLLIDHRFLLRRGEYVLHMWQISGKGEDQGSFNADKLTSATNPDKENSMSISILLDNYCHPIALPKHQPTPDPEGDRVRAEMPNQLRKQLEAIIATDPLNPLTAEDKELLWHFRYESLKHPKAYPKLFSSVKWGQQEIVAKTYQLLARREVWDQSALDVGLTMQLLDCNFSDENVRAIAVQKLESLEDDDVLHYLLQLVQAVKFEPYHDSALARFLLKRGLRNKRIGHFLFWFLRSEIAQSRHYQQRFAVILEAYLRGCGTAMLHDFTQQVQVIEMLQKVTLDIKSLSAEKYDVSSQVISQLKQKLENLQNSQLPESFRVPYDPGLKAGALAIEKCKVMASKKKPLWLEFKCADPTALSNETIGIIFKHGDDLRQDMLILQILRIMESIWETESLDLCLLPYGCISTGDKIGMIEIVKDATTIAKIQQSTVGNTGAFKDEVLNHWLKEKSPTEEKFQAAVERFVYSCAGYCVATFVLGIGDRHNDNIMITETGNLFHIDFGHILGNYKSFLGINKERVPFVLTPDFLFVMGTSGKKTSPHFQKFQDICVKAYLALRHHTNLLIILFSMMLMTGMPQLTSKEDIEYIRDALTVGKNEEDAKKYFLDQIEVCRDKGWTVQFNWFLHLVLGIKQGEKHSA
Procedure, shortened: as §1

PI3Kδ = molecular target: T4, PI3Kδ (Homo sapiens, UniProt O00329); experiment: In vitro determination of the PI3K enzyme inhibitory activity in the cell free assay (ADP-Glo Kinase Assay), PI3Kδ; conditions: ATP 80 μM, read-out: PI3K delta inhibition
T4 construct: purchased Millipore Ltd (Billerica, Mass.)
T4 sequence (O00329 whole entry): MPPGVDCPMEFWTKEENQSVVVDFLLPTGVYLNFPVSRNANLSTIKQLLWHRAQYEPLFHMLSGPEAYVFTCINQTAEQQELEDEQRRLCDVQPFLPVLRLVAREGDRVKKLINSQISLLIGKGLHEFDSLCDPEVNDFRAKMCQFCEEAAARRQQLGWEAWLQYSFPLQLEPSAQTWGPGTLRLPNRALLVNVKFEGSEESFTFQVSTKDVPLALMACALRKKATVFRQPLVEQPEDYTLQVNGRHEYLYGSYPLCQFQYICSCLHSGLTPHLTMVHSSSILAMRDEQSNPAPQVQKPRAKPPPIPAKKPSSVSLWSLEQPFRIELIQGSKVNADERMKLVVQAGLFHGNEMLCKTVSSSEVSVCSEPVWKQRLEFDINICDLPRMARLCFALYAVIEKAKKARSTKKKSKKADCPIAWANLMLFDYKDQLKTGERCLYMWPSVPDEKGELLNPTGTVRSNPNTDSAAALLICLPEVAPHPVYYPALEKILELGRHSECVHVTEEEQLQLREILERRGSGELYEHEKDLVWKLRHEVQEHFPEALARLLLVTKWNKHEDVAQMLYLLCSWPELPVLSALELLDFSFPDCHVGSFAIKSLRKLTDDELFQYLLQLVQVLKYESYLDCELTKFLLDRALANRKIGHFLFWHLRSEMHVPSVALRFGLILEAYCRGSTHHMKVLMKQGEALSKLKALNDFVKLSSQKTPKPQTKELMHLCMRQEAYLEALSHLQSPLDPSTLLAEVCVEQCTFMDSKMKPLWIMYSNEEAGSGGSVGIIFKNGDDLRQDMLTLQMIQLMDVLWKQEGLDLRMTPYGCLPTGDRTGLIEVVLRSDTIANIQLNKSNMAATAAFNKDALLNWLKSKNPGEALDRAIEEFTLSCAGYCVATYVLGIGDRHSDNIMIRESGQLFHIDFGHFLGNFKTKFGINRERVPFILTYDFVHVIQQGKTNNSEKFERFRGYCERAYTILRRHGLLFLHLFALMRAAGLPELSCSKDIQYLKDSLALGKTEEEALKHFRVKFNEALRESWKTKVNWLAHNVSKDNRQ
T4 sequence (P27986 whole entry partner): as the sequence (P27986 whole entry partner) above
Procedure, shortened: as §1

pIC50 (PI3Kα) | pIC50 (PI3Kβ) | pIC50 (PI3Kγ) | pIC50 (PI3Kδ) | Structure (SMILES)
6.00 to 8.00 | 6.00 to 8.00 | 6.00 to 8.00 | 6.00 to 8.00 | CC(c1cc2ccccn2c1C#CCN(C)C)n1nc(-c2cc(O)cc(F)c2)c2c(N)ncnc21 (stereo not shown) [Example 131, 3-[4-amino-1-(1-{3-[3-(dimethylamino)prop-1-yn-1-yl]indolizin-2-yl}ethyl)-1H-pyrazolo[3,4-d]-pyrimidin-3-yl]-5-fluorophenol]
6.00 to 8.00 | 6.00 to 8.00 | 6.00 to 8.00 | > 8.00 | CC(c1cc2ccccn2c1CN1CCC2(CCN(C)CC2)CC1)n1nc(-c2cc(O)cc(F)c2)c2c(N)ncnc21 (stereo not shown) [Example 143, 3-(4-amino-1-{1-[3-({9-methyl-3,9-diazaspiro[5.5]undecan-3-yl}methyl)indolizin-2-yl]ethyl}-1H-pyrazolo[3,4-d]pyrimidin-3-yl)-5-fluorophenol]
< 6.00 | 6.00 to 8.00 | 6.00 to 8.00 | > 8.00 | CC(c1cc2ccccn2c1-c1ccn(CCN2CCOCC2)c(=O)c1)n1nc(-c2cc(O)cc(F)c2)c2c(N)ncnc21 (stereo not shown) [Example 121, 4-(2-{1-[4-amino-3-(3-fluoro-5-hydroxyphenyl)-1H-pyrazolo[3,4-d]pyrimidin-1-yl]ethyl}-indolizin-3-yl)-1-[2-(morpholin-4-yl)ethyl]-1,2-dihydropyridin-2-one]
< 6.00 | < 6.00 | < 6.00 | 6.00 to 8.00 | CC(Nc1ncnc(N)c1C#CCO)c1cc2ccccn2c1-c1ccccn1 (stereo not shown) [Example 59, 3-[4-amino-6-({1-[3-(pyridin-2-yl)indolizin-2-yl]ethyl}amino)pyrimidin-5-yl]prop-2-yn-1-ol]
< 6.00 | 6.00 to 8.00 | < 6.00 | 6.00 to 8.00 | CC(c1cc2ccccn2c1-c1cccc(C2CCCN2C)c1)n1nc(-c2cc(O)cc(F)c2)c2c(N)ncnc21 (mixture of isomers) [Example 118, 3-[4-amino-1-(1-{3-[3-(1-methylpyrrolidin-2-yl)phenyl]indolizin-2-yl}ethyl)-1H-pyrazolo[3,4-d]pyrimidin-3-yl]-5-fluorophenol]
< 6.00 | < 6.00 | < 6.00 | 6.00 to 8.00 | CC(c1cc2ccccn2c1-c1ccccn1)n1nc(-c2cc(F)cc(NS(C)(=O)=O)c2)c2c(N)ncnc21 (stereo not shown) [Example 74, N-[3-(4-amino-1-{1-[3-(pyridin-2-yl)indolizin-2-yl]ethyl}-1H-pyrazolo[3,4-d]pyrimidin-3-yl)-5-fluorophenyl]methanesulfonamide]
< 6.00 | 6.00 to 8.00 | 6.00 to 8.00 | > 8.00 | CC(c1cc2ccccn2c1-c1ccccn1)n1nc(-c2cc(O)cc(C#N)c2)c2c(N)ncnc21 (stereo not shown) [Example 77, 3-(4-amino-1-{1-[3-(pyridin-2-yl)indolizin-2-yl]ethyl}-1H-pyrazolo[3,4-d]pyrimidin-3-yl)-5-hydroxybenzonitrile]
